Data from paper PMC11109052, “Metabolism characterization and toxicity of N-hydap, a marine candidate drug for lung cancer therapy by LC–MS method” (Natural Products and Bioprospecting, 2024).

Legend:
RKMs = assay: Kinetics of N-hydap glucuronidation in RKMs; assay type: in vitro ADME, rat; settings: RKM
Method: In this study, the rats were executed by drawing blood from the abdominal aorta and mice were sacrificed with cervical dislocation before the liver and kidneys were excised. The liver and kidneys were removed, and washed with chilled cleansing solution (contains 8 mM KH2PO4, 5.6 mM EDTA·K2·2H2O, 1 mM DTT and 229.6 μM PMSF), homogenized in a tissue homogenate buffer with a pH of 7.4, (consisting of […], 8 mM K2HPO4, 250 mM sucrose, 1 mM EDTA·K2·2H2O and 229.6 μM PMSF). Subsequently, the homogenate was centrifuged at 10,400 rpm at 4 °C for 15 min, and the supernatant was then centrifuged at 35,000 rpm at 4 °C for 60 min. A 250 mM sucrose buffer was added to the pellet to reconstitute and the resuspension was stored at − 80 °C until use. Microsome protein concentrations were measured by Omni-Easy™ Instant BCA Protein Assay Kit.
Various microsomes including HLMs, HKMs, HIMs, RLMs, RKMs, MLMs and MKMs were involved in CYP and UGT reactions of N-hydap. […]
The substrate concentrations used for HLMs were 0.05, 0.5, 2, 2.5, 5, 10, 25, 50, and 100 μM. […] The rates of N-hydap-G by enzymes were expressed as nmol/mg/min, representing the amount of metabolites formed per minute per milligram of protein. Kinetic parameters were determined by analyzing the Eadie–Hofstee plots. […]

CYP2B6 = assay: Western blot protein level after 7 days gavage: CYP2B6; assay type: in vivo; settings: mice, p.o. 7 days; liver
Method: Mice were randomly divided into four groups, with eight animals in each group. The mice received oral pretreatment with N-hydap for 7 days at doses of 2, 5, and 10 mg/kg/day, which were considered as the low dose, medium dose, and high dose, respectively. Correspondingly, the control group received PBS. On the 8th day, the liver and kidneys were removed, and organs from eight mice per group were combined to prepare MLMs and MKMs using the detailed procedures above. Subsequently, we determined the activity of CYP and UGT enzymes by specific substrate metabolized with MLMs (0.5 mg/mL) and MKMs (0.2 mg/mL) in vitro. […] In the ex vivo experiments, the activity of enzymes was measured by quantifying the production of various metabolites (nM/mg protein/min). […] The measurements were performed using multiple reaction monitoring (MRM) transitions, which are specific mass spectrometry transitions used for quantification. […]
After 7 days of N-hydap gavage, the liver and kidney tissues were lysed using RIPA buffer supplemented with a 1% protease inhibitor cocktail. […] Western blot signals were detected using an ECL chemiluminescence detection agent. The relative intensity of each protein band was scanned and quantified using Image J software.

For `CC1CCC2C(C=CC(C)C2C(=O)c2c(O)c(C3(O)CCC(O)C4OC43)cn(O)c2=O)C1` (centres unmarked) [N-hydap, N-Hydroxyapiosporamide], the Km (RKMs) was 125 µM and the “increase of protein levels of CYP2B6” value (CYP2B6) was 92%.
